The record followed here is patent publication US5624923A, “Tricyclic diazepine vasopressin antagonists and oxytocin antagonists” (priority 1995, dated 1997).

In general, IC50 refers to the midpoint of a concentration-inhibition curve.

T1 sequence (P30518 whole entry): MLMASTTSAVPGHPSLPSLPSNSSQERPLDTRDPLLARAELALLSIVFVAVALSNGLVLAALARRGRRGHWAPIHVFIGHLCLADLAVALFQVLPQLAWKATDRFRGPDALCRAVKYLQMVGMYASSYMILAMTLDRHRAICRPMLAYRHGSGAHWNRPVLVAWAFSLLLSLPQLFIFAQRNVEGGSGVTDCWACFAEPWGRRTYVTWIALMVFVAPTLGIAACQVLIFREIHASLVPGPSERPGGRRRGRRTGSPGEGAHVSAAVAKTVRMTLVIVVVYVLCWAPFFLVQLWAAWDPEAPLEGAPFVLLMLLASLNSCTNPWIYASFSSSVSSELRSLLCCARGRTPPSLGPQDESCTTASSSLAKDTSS

This experiment has as its target T1, Human V2 Vasopressin Receptor (Homo sapiens, UniProt P30518).
T1 construct: expressed in transfected cells; host or cells: mouse fibroblast cell line LV-2
Kind of experiment: Binding to Membranes of Mouse Fibroblast Cell Line (LV-2) Transfected with the cDNA Expressing the Human V2 Vasopressin Receptor. As to conditions: LV-2 cell membranes, human V2; read-out: V2 IC50 (**).
For `O=C(Nc1ccc(C(=O)N2Cc3ccnn3Cc3ccccc32)cc1)c1ccc(Cl)cc1Cl` [Example 217, N-[4-(4H-Pyrazolo[5,1-c][1,4]benzo-diazepin-5(10H)-ylcarbonyl)phenyl]-2,4-dichlorobenzamide], the half-maximal inhibitory concentration (IC50) is 10 nM.

For `O=C(Nc1ccc(C(=O)N2Cc3cccn3Cc3sccc32)cc1)c1ccc(Cl)cc1Cl` [Example 274, N-(4-(5H-pyrrolo[1,2-a]thieno-[3,2-e][1,4]diazepin-4(10H)-ylcarbonyl)phenyl]-2,4-dichloro-benzamide], the 50% inhibitory concentration (IC50) is 31 nM.

For `COc1cc(C(=O)N2Cc3cccn3Cc3ccccc32)ccc1NC(=O)c1ccccc1C` [Example 477, N-[4-(5H-pyrrolo[2,1-c][1,4]benzodiazepin-10(11H)-ylcarbonyl)-2-methoxy-phenyl]-2-methylbenzamide], the half-maximal inhibitory concentration (IC50) was 3.2 nM.

Turning to `COc1cc(C(=O)N2Cc3cccn3Cc3ccccc32)ccc1NC(=O)c1ccc(Cl)cc1Cl` [Example 478, N-[4-(5H-pyrrolo[2,1-c][1,4]benzodiazepin-10(11H)-ylcarbonyl)-2-methoxy-phenyl]-2,4-dichlorobenzamide], the IC50 turned out to be 1.9 nM.

`O=C(Nc1ccc(C(=O)N2Cc3cccn3Cc3ccccc32)cc1)c1cc([N+](=O)[O-])ccc1Cl` [Example 480, N-[4-(5H-pyrrolo[2,1-c][1,4]benzodiazepin-10(11H)-ylcarbonyl)phenyl]-2-chloro-5-nitrobenzamide]: the IC50 was 26 nM. In the case of `Cc1cccc(C(=O)Nc2ccc(C(=O)N3Cc4cccn4Cc4ccccc43)c(Cl)c2)c1C` [Example 525, N-[4-(5H-pyrrolo[2,1-c][1,4]benzodiazepin-10(11H)-ylcarbonyl]-3-chlorophenyl]-2,3-dimethylbenzamide] it was 0.42 nM; in that of `O=C(Nc1ccc(C(=O)N2Cc3cccn3Cc3ccccc32)c(Cl)c1)c1ccc(F)cc1Cl` [Example 527, N-[4-(5H-pyrrolo[2,1-c][1,4]benzodiazepin-10(11H)-ylcarbonyl]-3-chlorophenyl]-4-fluoro-2-chlorobenzamide], 0.67 nM. For `O=C(Nc1ccc(C(=O)N2Cc3cccn3Cc3ccccc32)c(Cl)c1)c1ccccc1C(F)(F)F` [Example 528, N-[4-(5H-pyrrolo[2,1-c][1,4]benzodiazepin-10(11H)-ylcarbonyl]-3-chlorophenyl]-2-(trifluoromethyl)benzamide] the value was 6 nM.
